The text below walks through data of patent US20240368150A1 (Hoffmann-La Roche Inc., priority 2021, published 2024).

Structures are written as SMILES. pEC50: −log10 of the molar value. Like-named read-outs stand apart in the source and are kept apart here.

Assay [1] relates to primary human T-cells. As to the kind of experiment: Proliferation assay after 5 days (CellTiter-Glo, CD3 stimulation; PBS counter screen). Format: cell-based. The conditions noted are these: CD3 stimulation; for Emax: read-out: Emax proliferation (% activation); for pEC50: primary human T-cells, CellTiter-Glo after 5 days, EC50 of fitted sigmoidal curve, read-out: Tcell Proliferation CD3 EC50. The method, then:
Compounds are then added (see next section) to medium only plates.
Cells are assessed for proliferation 5 days later by measuring […] using CellTiterGlo (Promega).
After 5 days, for detection of ATP which is directly proportional to the number of cells present per well, the CellTiter-Glo® 2.0 Reagent is used. After visual control for toxicity or precipitations of the tested compounds, the plates are equilibrated to room temperature for 45 minutes. CellTiter-Glo® 2.0 Reagent is equilibrated to room temperature as well. After equilibration, an equal amount of CellTiter-Glo reagent is added to the cells (80 μl/well) with an electronic multichannel pipette. Plates are placed on a rocking platform for 15 minutes at room temperature. After incubation, the bottom of the plates is sealed with backing tape. Luminescence is measured with PHERAstar FSX (interval time 0.5 sec, gain 3000, focal height 15 mm) and exported as CSV file for analysis in Genedata screener.
Compounds which activate unstimulated cells (see IL2 measurements) or compounds which negatively affected viability were flagged.
A general note: In ATP-based viability assays light output follows the ATP content of the culture.

Assay [2] has as its system primary human T-cells.
The mark [3] stands for this setting: Homo sapiens, T-cell, 120 h, 5 days, normalized to reference compound A1 as stimulator control = 100%, DMSO neutral control.

Turning to `CC1(Nc2nc(-c3cc4c(cc3F)S(=O)(=O)C[C@H](N)C(=O)N4Cc3ccc(Cl)cc3)no2)CC(F)(F)C1` [Example 201, (3R)-3-amino-5-[(4-chlorophenyl)methyl]-7-[5-[(3,3-difluoro-1-methyl-cyclobutyl)amino]-1,2,4-oxadiazol-3-yl]-8-fluoro-1,1-dioxo-2,3-dihydro-1λ^6,5-benzothiazepin-4-one], the Emax with primary human T-cells [1] (setting [3]) is 156%. Further, the pEC50 with primary human T-cells [1] (Homo sapiens, T-cell, 120 h) was 6.64; in the assay on primary human T-cells [2], 6.08.
The matching figures for `COC(=O)NC(C(F)(F)F)C(C)(C)c1nnc(-c2cc3c(cc2F)S(=O)(=O)C[C@H](N)C(=O)N3Cc2ccc(Cl)cc2)o1` (stereo partly drawn) [Example 137, methyl N-[2-methyl-2-[5-[(3R)-3-amino-5-[(4-chlorophenyl)methyl]-8-fluoro-1,1,4-trioxo-2,3-dihydro-1λ^6,5-benzothiazepin-7-yl]-1,3,4-oxadiazol-2-yl]-1-(trifluoromethyl)propyl]carbamate]: 90%, 6.51 and 6.31.
The matching figures for `CC(=O)N1CCC(n2nnc(-c3cc4c(cc3F)S(=O)(=O)C[C@H](N)C(=O)N4Cc3ccc(Cl)cc3)n2)CC1` [Example 11, (3R)-7-[2-(1-acetyl-4-piperidyl)tetrazol-5-yl]-3-amino-5-[(4-chlorophenyl)methyl]-8-fluoro-1,1-dioxo-2,3-dihydro-1λ^6,5-benzothiazepin-4-one]: 107%, 5.87 and 5.89.
The corresponding values for `CC(O)(CNc1nnc(-c2cc3c(cc2F)S(=O)(=O)C[C@H](N)C(=O)N3Cc2ccc(Cl)cc2)o1)C(F)(F)F` (stereo partly drawn) [Example 484] are 51%, 5.97 and 5.72.
With `COC(=O)N1CC2CC(c3nc(-c4cc5c(cc4F)[S+]([O-])C[C@H](N)C(=O)N5Cc4ccc(OC(F)(F)F)cc4)no3)(C2)C1` (stereo partly drawn) [Example 336, methyl 1-[3-[(3R)-3-amino-8-fluoro-1,4-dioxo-5-[[4-(trifluoromethoxy)phenyl]methyl]-2,3-dihydro-1λ^4,5-benzothiazepin-7-yl]-1,2,4-oxadiazol-5-yl]-3-azabicyclo[3.1.1]heptane-3-carboxylate], the “Emax proliferation (% activation)” value in the assay with primary human T-cells [1] (5 days, normalized to reference compound A1 as stimulator control = 100%, DMSO neutral control) is reported as 114 % activation. The pEC50 in the assay on primary human T-cells [1] is 5.96; in the assay on primary human T-cells [2], 5.15.
Take `N[C@H]1CS(=O)(=O)c2cc(F)c(-c3noc(C4(CO)CCCO4)n3)cc2N(Cc2ccc(Cl)cc2)C1=O` (stereo partly drawn) [Example 320, (3R)-3-amino-5-[(4-chlorophenyl)methyl]-8-fluoro-7-[5-[2-(hydroxymethyl)tetrahydrofuran-2-yl]-1,2,4-oxadiazol-3-yl]-1,1-dioxo-2,3-dihydro-1λ^6,5-benzothiazepin-4-one]: in the assay on primary human T-cells [1] (setting [3]), the Emax came to 107%. Also, the pEC50 with primary human T-cells [1] (Homo sapiens, T-cell, 120 h) was 5.51; with primary human T-cells [2], 5.49.
The matching figures for `CC1(c2nc(-c3cc4c(cc3F)S(=O)(=O)C[C@H](N)C(=O)N4Cc3ccc(Cl)cc3)no2)CCN(C(=O)N2CCCC2)CC1` [Example 305, (3R)-3-amino-5-[(4-chlorophenyl)methyl]-8-fluoro-7-[5-[4-methyl-1-(pyrrolidine-1-carbonyl)-4-piperidyl]-1,2,4-oxadiazol-3-yl]-1,1-dioxo-2,3-dihydro-1λ^6,5-benzothiazepin-4-one]: 84%, 6.14 and 5.74.
Regarding `N[C@H]1CS(=O)(=O)c2cc(F)c(-c3nnc(C4CNCCC4(F)F)o3)cc2N(Cc2ccc(Cl)cc2)C1=O` (stereo partly drawn) [Example 105, (3R)-3-amino-5-[(4-chlorophenyl)methyl]-7-[5-(4,4-difluoro-3-piperidyl)-1,3,4-oxadiazol-2-yl]-8-fluoro-1,1-dioxo-2,3-dihydro-1λ^6,5-benzothiazepin-4-one], in the assay on primary human T-cells [1] (setting [3]), the Emax came out at 31%. In addition, the pEC50 in the assay with primary human T-cells [1] (Homo sapiens, T-cell, 120 h) was 5.38; with primary human T-cells [2], 5.93.
As to `CC(C)(C)c1nc(-c2cc3c(cc2F)S(=N)(=O)C[C@H](N)C(=O)N3Cc2ccc(Cl)cc2)no1` (stereo partly drawn) [Example 516, (3R)-3-amino-7-(5-tert-butyl-1,2,4-oxadiazol-3-yl)-5-[(4-chlorophenyl)methyl]-8-fluoro-1-imino-1-oxo-2,3-dihydro-1λ^6,5-benzothiazepin-4-one], the Emax in the assay with primary human T-cells [1] (setting [3]) is 51%. For the same compound, the pEC50 in the assay on primary human T-cells [1] (Homo sapiens, T-cell, 120 h) is 5.08; in the assay with primary human T-cells [2] it was 5.56.
Consider `COC(=O)N1CC(c2nnc(-c3cc4c(cc3F)S(=O)(=O)C[C@H](N)C(=O)N4Cc3ccc(Cl)cc3)o2)CC(F)(F)C1` (stereo partly drawn) [Example 163, methyl 3,3-difluoro-5-[5-[(3R)-3-amino-5-[(4-chlorophenyl)methyl]-8-fluoro-1,1,4-trioxo-2,3-dihydro-1λ^6,5-benzothiazepin-7-yl]-1,3,4-oxadiazol-2-yl]piperidine-1-carboxylate], for which the Emax in the assay with primary human T-cells [1] (setting [3]) came out at 118%. Moreover, the pEC50 was 7.29 with primary human T-cells [1] (Homo sapiens, T-cell, 120 h) and 7.00 in the assay with primary human T-cells [2].
Regarding `N[C@H]1CS(=O)(=O)c2cc(F)c(-c3nnc(N4CC5(C4)CC(F)(F)C5)o3)cc2N(Cc2ccc(Cl)cc2)C1=O` [Example 479, (3R)-3-amino-5-[(4-chlorophenyl)methyl]-7-[5-(6,6-difluoro-2-azaspiro[3.3]heptan-2-yl)-1,3,4-oxadiazol-2-yl]-8-fluoro-1,1-dioxo-2,3-dihydro-1λ^6,5-benzothiazepin-4-one], the Emax in the assay on primary human T-cells [1] (setting [3]) worked out at 127%. The pEC50 in the assay on primary human T-cells [1] (Homo sapiens, T-cell, 120 h) was 6.36; in the assay on primary human T-cells [2], 6.96.
The matching figures for `CS(=O)(=O)N1CC(c2nnc(-c3cc4c(cc3F)S(=O)(=O)C[C@H](N)C(=O)N4Cc3ccc(Cl)cc3)o2)CC(F)(F)C1` (stereo partly drawn) [Example 164, (3R)-3-amino-5-[(4-chlorophenyl)methyl]-7-[5-(5,5-difluoro-1-methylsulfonyl-3-piperidyl)-1,3,4-oxadiazol-2-yl]-8-fluoro-1,1-dioxo-2,3-dihydro-1λ^6,5-benzothiazepin-4-one]: 82%, 6.54 and 6.15.
The corresponding values for `CN1CC(c2nc(-c3cc4c(cc3F)S(=O)(=O)C[C@H](N)C(=O)N4Cc3ccc(Cl)cc3)no2)CC(C)(C)C1` (stereo partly drawn) [Example 324, (3R)-3-amino-5-[(4-chlorophenyl)methyl]-8-fluoro-1,1-dioxo-7-[5-(1,5,5-trimethyl-3-piperidyl)-1,2,4-oxadiazol-3-yl]-2,3-dihydro-1λ^6,5-benzothiazepin-4-one] are 107%, 6.47 and 5.36.
The matching figures for `CC(F)(F)CNC(=O)c1nc(-c2cc3c(cc2F)S(=O)(=O)C[C@H](N)C(=O)N3Cc2ccc(Cl)cc2)no1` [Example 295, 3-[(3R)-3-amino-5-[(4-chlorophenyl)methyl]-8-fluoro-1,1,4-trioxo-2,3-dihydro-1λ^6,5-benzothiazepin-7-yl]-N-(2,2-difluoropropyl)-1,2,4-oxadiazole-5-carboxamide]: 97%, 5.86 and 6.05.
Turning to `CC(C)(C)c1nnc(-c2cc3c(cc2F)S(=O)(=O)C[C@H](N)C(=O)N3Cc2cnn(CC3CC3)c2)o1` [Example 255, (3R)-3-amino-7-(5-tert-butyl-1,3,4-oxadiazol-2-yl)-5-[[1-(cyclopropylmethyl)pyrazol-4-yl]methyl]-8-fluoro-1,1-dioxo-2,3-dihydro-1λ^6,5-benzothiazepin-4-one], the Emax in the assay with primary human T-cells [1] (setting [3]) stood at 78%. In addition, the pEC50 was 5.32 in the assay on primary human T-cells [1] (Homo sapiens, T-cell, 120 h) and 6.07 with primary human T-cells [2].
The corresponding values for `CN(C)CCCC(C)(C)c1nnc(-c2cc3c(cc2F)S(=O)(=O)C[C@H](N)C(=O)N3Cc2ccc(Cl)cc2)o1` [Example 143, (3R)-3-amino-5-[(4-chlorophenyl)methyl]-7-[5-[4-(dimethylamino)-1,1-dimethyl-butyl]-1,3,4-oxadiazol-2-yl]-8-fluoro-1,1-dioxo-2,3-dihydro-1λ^6,5-benzothiazepin-4-one] are 77%, 5.62 and 5.90.
The corresponding values for `CS(=O)(=O)N1CCCC(n2nnc(-c3cc4c(cc3F)S(=O)(=O)C[C@H](N)C(=O)N4Cc3ccc(Cl)cc3)n2)C1` (stereo partly drawn) [Example 18, (3R)-3-amino-5-[(4-chlorophenyl)methyl]-8-fluoro-7-[2-(1-methylsulfonyl-3-piperidyl)tetrazol-5-yl]-1,1-dioxo-2,3-dihydro-1λ^6,5-benzothiazepin-4-one] are 136%, 6.53 and 6.04.
`CN(C)CCC(C)(C)c1nnc(-c2cc3c(cc2F)S(=O)(=O)C[C@H](N)C(=O)N3Cc2ccc(Cl)cc2)o1` [Example 140, (3R)-3-amino-5-[(4-chlorophenyl)methyl]-7-[5-[3-(dimethylamino)-1,1-dimethyl-propyl]-1,3,4-oxadiazol-2-yl]-8-fluoro-1,1-dioxo-2,3-dihydro-1λ^6,5-benzothiazepin-4-one]: the Emax in the assay with primary human T-cells [1] (setting [3]) amounted to 70%. For the same compound, the pEC50 in the assay with primary human T-cells [1] (Homo sapiens, T-cell, 120 h) was 5.27; in the assay with primary human T-cells [2], 5.41.
